According to US20160244435A1, “EXPANDED THERAPEUTIC POTENTIAL IN NITROHETEROARYL ANTIMICROBIALS” (The Regents of the University of California, priority 2013, published 2016):
Where two headings read alike, the source gives them in different places.

Assays:
Giardia = conditions: cited from earlier work
[1] = system: Mz-sensitive (MzS) G. lamblia strain 713; assay: Giardia 48 h growth and survival assay (ATP read-out), Mz-sensitive line; assay type: cell-based, Giardia lamblia; conditions: Giardia duodenalis; sensitive 713 line (MzS cells)
G. lamblia GS/M = assay: Murine Giardia infection model; assay type: in vivo, C57BL/6 mice; conditions: single oral dose, data not shown
[2] = system: Mz-resistant (MzR) G. lamblia 713 line; assay: microbe, parasite or virus in culture; assay type: cell-based, Giardia lamblia
[3] = regimen not stated or depending on dosing regimens

CC(=O)Oc1ccccc1C(=O)Nc1ncc([N+](=O)[O-])s1 [nitazoxanide]
efficacy (Giardia; two daily 500 mg doses for three days): 70-80%

CCN(CC)CCCC(C)Nc1c2ccc(Cl)cc2nc2ccc(OC)cc12 (stereo not shown) [quinacrine]
efficacy (Giardia; [3]): up to 90%

Cc1ncc([N+](=O)[O-])n1CCO [Mz, metronidazole]
EC50 [1]: 2000 nM
lowest single dose that eradicates giardiasis in at least half of infected mice (G. lamblia GS/M): 100 mg/kg
efficacy (Giardia; single-dose treatment): 20-60%
efficacy (cases in which effective) (Giardia; three daily 250 mg oral doses for 5-10 days): 80-95%
residual activity in MzR compared to MzS cells, 100%×(EC50 in MzS/EC50 in MzR) ([2]; 713 syngeneic pair): 4%
EC50 ([2]; Giardia duodenalis): 50 µM

CCCSc1ccc2nc(NC(=O)OC)[nH]c2c1 [albendazole]
efficacy (Giardia; [3]): 25-90%

O=C1OCCN1/N=C/c1ccc([N+](=O)[O-])o1 [furazolidone]
efficacy (Giardia; [3]): 80-85%
